These results are taken from patent US9435738B2, “System and device for characterizing cells” (The Johns Hopkins University, priority 2011, dated 2016).

For this test, the system named is Mouse myoblasts (c2c12). The experiment in a line: microscopy-based assay measuring cell cycle phase and cell/nuclear properties simultaneously in the same cells. The note with it: for cell cycle phase enriched / blocked by treatment: cell-cycle distribution vs control cells; for contribution to changes in nuclear size due to (uncontrolled) intrinsic changes in nuclear size in each phase / contribution to changes in nuclear size due to forced cell-cycle redistribution: population-averaged nuclear size, Eq. 2, FIG. 36 B; for time after release at which asynchronized (untreated) cell cycle distribution is recovered: release from synchronizing drug. As for the experimental part:
For each type of cell, ˜10,000 cells were plated on a glass bottom dish (World Precision Instruments, Sarasota, Fla.). After incubation for 48 h, the treatment for synchronization was applied. To serum-starve cells, cells were washed three times with Hanks' balanced salt solution (HBSS) (GBICO) and cultured in serum-free medium for 72 h. For synchronization at early S phase, cells were treated with 2 mM of thymidine for 18 h twice. Between these two treatments, cells were rinsed with HBSS three times and cultured in normal growth medium to release cell cycle for 9 h. To synchronize cells in the M phase, cells were first treated with 2 mM of thymidine for 24 h. Followed by rinsing with HBSS three times, cells were released with normal growth medium for 3 h. After the short release, cells were treated with 100 ng/ml of microtubule-depolymerizing drug nocodazole for 12 h.
Cells were fixed with 3.7% of formaldehyde (Sigma) for 15 min at room temperature (RT). After fixation, cells were permeabilized with 0.1% Triton X-100 (Sigma) for 10 min and blocked for nonspecific binding with phosphate-buffered saline (PBS) supplemented with 10% of goat serum for 30 min. Cells were incubated with specific concentration of dye diluted from stock solution for 1 h. Nuclear DNA was stained with Hoechst 33342 (Sigma) at 1:40 dilution, Cytoplasm was stained with HCS CellMask Cy5 (Invitrogen) at 1:20000 dilution. Actin was stained with Phalloidin 488 (Invitrogen) at 1:40 dilution. PBS rinse was conducted three times between each step.
Fluorescent images were collected with a Nikon DS-QiMc camera installed on a customized Nikon TE300 microscope with a 10× Plan Fluor lens (N.A. 0.3, Nikon Melville, N.Y.), a motorized stage, and motorized excitation and emission filters (Prior Scientific, Rockland, Mass.) controlled by Nikon NIS Elements. Eighty-one (9-by-9 grid) fields of views were consistently generated using the software Nikon NIS-Elements. The size of the image acquired from the camera was 1280×1024 pixels, and the pixel size was 0.57 μm for a 10× objective. Our ΔX and ΔY for image capture was 662 μm and 520 μm respectively to allow 10% overlay between adjacent fields. The total size of the scanning region (81 images) was ˜28.5 mm^2. Four different channels (UV, GFP, Cy5, and phase contrast) were collected for every field of view. The calibration glass-bottom dish contained dyes for three different fluorescent channels, UV, GFP, and Cy5. For each fluorescence channel, UV, GFP, and Cy5, two calibration images were acquired: with and without illumination. The calibration images were used to reduce the non-uniform illumination of fluorescent images. All of the phenotypic information was calculated with a custom high throughput program (written in Matlab) developed in our laboratory. Typically >1,000 cells were analyzed per different biological repeat (i.e. different cells) for a total >3,000 cells for each tested condition.
To precisely segment individual cells and nuclei, we used slightly different approaches based on the same principle. For nuclear segmentation, because of the relatively circular shape and relatively even intensity of the Hoechst stain, we filtered calibrated images (as described in the previous section) with a 23×23 pixel normalized Gaussian filter (similar scale as the size of nuclei) and an averaging filter (same size) to obtain IG (Gaussian intensity) and IM (averaged intensity). Subtracting IM from IG gives IN, the nuclear intensity values without regional background.
Because cells are larger than their nuclei, a larger size of filters was needed. However, one major limitation with spatial domain image filters is non-continuous edges. Increasing the size of the filter increases the size of this “non-trustable” region. The use of a spatial filter 2r+1 in size will lead to the loss of r+1 pixels from the edge because of incomplete information, which greatly reduces the usable image size. […]

For the molecule `CCNc1cc(N[C@H]2CC[C@H](O)CC2)nc(Nc2ccc3c(ccn3Cc3ccccc3)c2)n1` [Cdk4/6 inhibitor IV, trans-4-((6-(ethylamino)-2-((1-(phenylmethyl)-1H-indol-5-yl)amino)-4-pyrimidinyl)amino)-cyclohexanol], the “cell cycle phase enriched / blocked by treatment” value was “blocked cells in the G0/G1 phase”. Moreover, the “decrease in nuclear size of cells in the G0/G1 phase” value (10 nM for 24 h, G0/G1 phase, P<0.0001) was greater than 50%. For the same molecule, the “decrease in population-averaged cell size / nuclear size” value (10 nM for 24 h, population-averaged, accompanied by rounding of the nucleus) is recorded as roughly 50%. The “time after release during which cell properties continued to be affected” value (after removing inhibitor) was “up to 6 h”.
Take `Cc1cn([C@H]2C[C@H](O)[C@@H](CO)O2)c(=O)[nH]c1=O` [thymidine]: the “increase in mean cell size in the G2/M phase compared to untreated (asynchronized) cells in the same phase” value is on record as 220%, the “cell cycle phase enriched / blocked by treatment” value is on record as “S phase”, the “contribution to changes in nuclear size due to (uncontrolled) intrinsic changes in nuclear size in each phase” value was found to be 91% and the “contribution to changes in nuclear size due to forced cell-cycle redistribution” value is 9%. Also, the “time after release at which asynchronized (untreated) cell cycle distribution is recovered” value stood at 24 h. For the same molecule, where the note is “G0/G1 phase”, the “increase in mean size of cells in the G0/G1 phase compared to untreated (asynchronized) cells in the same phase” value is given as 130%. Besides, the “mean size of treated cells in the S phase relative to mean size of untreated cells in the S phase” value (S phase) was 2.2 times. The “increase in mean size of cells in the S phase compared to untreated cells in the same phase” value (S phase, after forced synchronization) turned out to be 120%.
As to `COC(=O)Nc1nc2ccc(C(=O)c3cccs3)cc2[nH]1` [nocodazole], the “increase in mean cell size in the G2/M phase compared to untreated (asynchronized) cells in the same phase” value is on record as 75%, the “cell cycle phase enriched / blocked by treatment” value is reported as “M phase”, the “contribution to changes in nuclear size due to (uncontrolled) intrinsic changes in nuclear size in each phase” value amounted to 41% and the “contribution to changes in nuclear size due to forced cell-cycle redistribution” value was 35%. The “time after release at which asynchronized (untreated) cell cycle distribution is recovered” value turned out to be 24 h. For the same molecule, the “change in measured cell properties caused by synchronization” value (compared phase-to-phase to control cells) was greater than 30%.
